Experimental data from patent US20170130064A1, “NOVEL POLYSILOXANE-BASED FOULING-RELEASE COATS COMPRISING POLY(OXYALKYLENE)-MODIFIED ALCOHOLS” (HEMPEL A/S, priority 2014, published 2017).
Read-outs that look alike come from different tables or passages of the source. Marks after values point to notes of the source that are not given here.

What was measured:
[1] = From supplier data sheet; cited from earlier work
[2] = Surface tension above critical micelle concentration in water (pendant drop method); assay type: physicochemical; conditions: 5 wt % of the compound in demineralized water, picture 5 seconds after drop
Procedure: The surface tension of a liquid/air interface can be determined by the “pendant drop method” as described in “Encyclopedia of Surface and Colloid Science” by Marcel Dekker, 2002.
Samples were prepared as 5 wt % of the compound in demineralized water mixed in a 50 mL PE bottle. At 5 wt % it is ensured that concentrations are well above the critical micelle concentration. The samples were left over-night on a shaking table to ensure saturation and/or mixing. The measurements by “pendant drop method” were performed with DataPhysics OCA-15 pus, Dynamic Contact Angle, using software SCA202 V 4.5.8. The needle was a Disposable needle SNP-D 165/137, and the volume drop was 15 microliters.
The picture from which the surface tension is calculated is taken 5 seconds after the drop is forced out of the syringe.

Substance | Surface tension [1] | Surface tension [2] [mN/m]
PEG-11 branched C12-C14 secondary alcohol | 30* mN/m | 
PEG-12 stearate |  | 35
PEG-20 oleyl ether |  | 36
PEG-8 branched C12-C14 secondary alcohol | 27* mN/m | 
PEG-6 decyl alcohol | 26.6* mN/m | 
PEG-7 lauryl alcohol | 29* mN/m | 
PEG-20 sorbitan monostearate |  | 43
PEG-12 nonylphenol, branched |  | 32
PEG-6 stearate |  | 43
PEG-22 oleyl alcohol | 44* mN/m | 
